Tests used:
[1] = test system: hypercholesterolemic swine; assay: Total cholesterol, triglyceride and glucose concentrations in tissues of hypercholesterolemic swine; format: in vivo; settings: control diet + 50 ppm, 42 days
Description: Each group of three 5-month old swine was administered either a control diet or a control diet supplemented with 50 ppm of TRF or 50 ppm of an individual tocotrienol. […] After a 12 hour fast, serum and plasma samples were taken a 0 hrs, 21 days and 42 days from the start of the feeding period. After taking serum and plasma samples from the pigs at the end of the 42 day period, all of the swine were fasted for a total of 40 hours, followed by a 48 hour refeeding period. One swine from each group was sacrificed at that time and the liver, intestine, lung, heart, loin muscle, adipose tissue and ham muscle were removed.
We next determined the effect of tocotrienols on the total cholesterol, triglyceride and glucose concentrations in various tissues of hypercholesterolemic swine.

[2] = test system: human peripheral blood neutrophils; assay: Release of superoxide in human peripheral blood neutrophils; format: cell-based; settings: for 5×10^5 cells/hour, phorbol myrstate acetate
Description: We determined the effect of a known tocotrienol, γ-T3, on the release of superoxide in human peripheral blood neutrophils. Neutrophils are an extracellular source of oxygen free radicals. Once activated, these neutrophils can attach to endothelial tissue where they release a potent toxin, superoxide. Superoxide amplifies the inflammatory response and impairs local circulation of the blood.
The neutrophils we tested were isolated by density centrifugation on Ficoll-Hypaque gradients using conventional methods (see E. Serbinova et al., "Free Radical Recycling and Intramembrane Mobility in the Antioxidant Properties of α-Tocopherol and α-Tocotrienol", Free Rad. Bio. and Med., 10, pp. 263-75 (1991)). The neutrophils were then placed in a 96-well plate. γ-T3 and phorbol myrstate acetate were added to the wells at the same time. The secretion of superoxide anion was measured as the superoxide dismutase-inhibitable reduction of ferricytochrome C.

Compound: CC(C)=CCC/C(C)=C/CC/C(C)=C/CCC1(C)CCc2cc(O)c(C)c(C)c2O1 (centres unmarked) [γ-T3, γ-tocotrienol, reference compound]
- TOTAL CHOLESTEROL CONCENTRATION, Adipose Tissue [1]: 94.55 mg/100 gm
- TOTAL CHOLESTEROL CONCENTRATION, Ham Muscle [1]: 85.15 mg/100 gm
- TOTAL CHOLESTEROL CONCENTRATION, Heart [1]: 56.68 mg/100 gm
- TOTAL CHOLESTEROL CONCENTRATION, Intestine [1]: 187.06 mg/100 gm
- TOTAL CHOLESTEROL CONCENTRATION, Liver [1]: 149.20 mg/100 gm
- TOTAL CHOLESTEROL CONCENTRATION, Loin Muscle [1]: 103.48 mg/100 gm
- TOTAL CHOLESTEROL CONCENTRATION, Lung [1]: 83.79 mg/100 gm
- TOTAL CHOLESTEROL, Adipose Tissue, percentage of control [1]: 86.43%
- TOTAL CHOLESTEROL, Ham Muscle, percentage of control [1]: 85.15%
- TOTAL CHOLESTEROL, Heart, percentage of control [1]: 87.86%
- TOTAL CHOLESTEROL, Intestine, percentage of control [1]: 86.81%
- TOTAL CHOLESTEROL, Liver, percentage of control [1]: 74.01%
- TOTAL CHOLESTEROL, Loin Muscle, percentage of control [1]: 86.51%
- TOTAL CHOLESTEROL, Lung, percentage of control [1]: 82.36%
- TOTAL GLUCOSE CONCENTRATION, Adipose Tissue [1]: 15.93 mg/100 gm
- TOTAL GLUCOSE CONCENTRATION, Ham Muscle [1]: 52.10 mg/100 gm
- TOTAL GLUCOSE CONCENTRATION, Heart [1]: 46.81 mg/100 gm
- TOTAL GLUCOSE CONCENTRATION, Intestine [1]: 62.50 mg/100 gm
- TOTAL GLUCOSE CONCENTRATION, Liver [1]: 383.68 mg/100 gm
- TOTAL GLUCOSE CONCENTRATION, Loin Muscle [1]: 60.30 mg/100 gm
- TOTAL GLUCOSE CONCENTRATION, Lung [1]: 63.08 mg/100 gm
- TOTAL GLUCOSE, Adipose Tissue, percentage of control [1]: 86.86%
- TOTAL GLUCOSE, Ham Muscle, percentage of control [1]: 96.80%
- TOTAL GLUCOSE, Heart, percentage of control [1]: 95.05%
- TOTAL GLUCOSE, Intestine, percentage of control [1]: 86.84%
- TOTAL GLUCOSE, Liver, percentage of control [1]: 94.53%
- TOTAL GLUCOSE, Loin Muscle, percentage of control [1]: 84.64%
- TOTAL GLUCOSE, Lung, percentage of control [1]: 94.25%
- TOTAL TRIGLYCERIDES CONCENTRATION, Adipose Tissue [1]: 391.58 mg/100 gm
- TOTAL TRIGLYCERIDES CONCENTRATION, Ham Muscle [1]: 181.99 mg/100 gm
- TOTAL TRIGLYCERIDES CONCENTRATION, Heart [1]: 142.72 mg/100 gm
- TOTAL TRIGLYCERIDES CONCENTRATION, Intestine [1]: 351.33 mg/100 gm
- TOTAL TRIGLYCERIDES CONCENTRATION, Liver [1]: 397.51 mg/100 gm
- TOTAL TRIGLYCERIDES CONCENTRATION, Loin Muscle [1]: 201.65 mg/100 gm
- TOTAL TRIGLYCERIDES CONCENTRATION, Lung [1]: 167.18 mg/100 gm
- TOTAL TRIGLYCERIDES, Adipose Tissue, percentage of control activity [1]: 89.88%
- TOTAL TRIGLYCERIDES, Ham Muscle, percentage of control activity [1]: 97.93%
- TOTAL TRIGLYCERIDES, Heart, percentage of control activity [1]: 98.96%
- TOTAL TRIGLYCERIDES, Intestine, percentage of control activity [1]: 98.24%
- TOTAL TRIGLYCERIDES, Liver, percentage of control activity [1]: 92.58%
- TOTAL TRIGLYCERIDES, Loin Muscle, percentage of control activity [1]: 91.79%
- TOTAL TRIGLYCERIDES, Lung, percentage of control activity [1]: 97.22%
- amount of superoxide released (control 19.7 nmole) ([2]; concentration 10^-5): 0 nmol
- amount of superoxide released (control 19.7 nmole) ([2]; concentration 10^-6): 8.0 nmol

— US6239171A, “Tocotrienols and tocotrienol-like compounds and methods for their use” (Lipogenics, Inc., priority 1998, dated 2001)
